# What was measured:
# [1] = molecular target: neuraminidase of A/Solomon Islands/3/2006(H1N1) (SI06) (Influenza A virus, UniProt B4URD9); format: biochemical
# [2] = molecular target: neuraminidase of A/New Caledonia/20/99(H1N1) (NC99) (Influenza A virus, UniProt Q7TG96); test: biochemical; format: biochemical
# [3] = molecular target: neuraminidase of the 6 sensitive H1N1 viruses from the 2007–2008 season (Influenza A virus, UniProt D5F1R0); format: biochemical; conditions: read-out: Mean Km, group Mean
# [4] = molecular target: neuraminidase of A(H1N1) clinical isolate 0814/07 (Influenza A virus, UniProt D5F1R0); format: biochemical
# [5] = molecular target: neuraminidase of the 5 pre-2007–2008 H1N1 viruses (Influenza A virus, UniProt B4URD9); format: biochemical; conditions: read-out: Mean Km, group Mean
# [6] = molecular target: neuraminidase of A(H1N1) clinical isolate 0692/07 (Influenza A virus (H1N1), UniProt A8C8J7); format: biochemical
# [7] = molecular target: neuraminidase of A(H1N1) clinical isolate 1951/06 (Influenza A virus, UniProt B4URD9); format: biochemical
# [8] = molecular target: neuraminidase of A(H1N1) clinical isolate 0611/07 (Influenza A virus (H1N1), UniProt D5F1R0); format: biochemical
# [9] = molecular target: neuraminidase of A(H1N1) clinical isolate 0497/07 (Influenza A virus (H1N1), UniProt D5F1R0); format: biochemical
# [10] = molecular target: neuraminidase of A(H1N1) clinical isolate 1149/08 (Influenza A virus, UniProt G3LYQ1); format: biochemical
# [11] = molecular target: neuraminidase of A(H1N1) clinical isolate 0974/08 (Influenza A virus, UniProt G3LYQ1); format: biochemical
# [12] = molecular target: neuraminidase of A(H1N1) clinical isolate 0286/07 (Influenza A virus (H1N1), UniProt D5F1R0); format: biochemical
# [13] = molecular target: neuraminidase of A(H1N1) clinical isolate 0650/04 (Influenza A virus (H1N1), UniProt B4YYP0); test: biochemical
Structure (SMILES),Km [1] [µM],Km [2] [µM],Km [3] [µM],Km [4] [µM],Km [5] [µM],Km [6] [µM],Km [7] [µM],Km [8] [µM],Km [9] [µM],Km [10] [µM],Km [11] [µM],Km [12] [µM],Km [13] [µM],Ki [2] [nM],Ki [13] [nM]
CC(=O)N[C@@H]1[C@@H](O)C[C@](Oc2ccc3c(C)cc(=O)oc3c2)(C(=O)O)O[C@H]1C(O)[C@H](O)CO (stereo partly shown) [MUNANA],25.1,27.4,9 ± 1.2,9,28,31.5,29.5,8,7.5,10.4,10.4,8.5,25.6,,
"CCOC(=O)C1=C[C@@H](OC(CC)CC)[C@H](NC(C)=O)[C@@H](N)C1 [OC, oseltamivir]",,,,,,,,,,,,,,0.19,0.2
"CC(=O)N[C@H]1[C@H]([C@H](O)[C@H](O)CO)OC(C(=O)O)=C[C@@H]1N=C(N)N [Zana, zanamivir]",,,,,,,,,,,,,,,0.2
